Molecules are shown by their SMILES.

The target of one assay is T1, PARP1 (Homo sapiens (Human), UniProt P09874). The assay is described as follows: cell-based assay (Proliferation Assay (PARP Inhibitors) in DLD-1 wt and DLD-1 BRCA2), Table 1. As for the experimental part: Proliferation Assay (PARP Inhibitors) in DLD-1 wt and DLD-1 BRCA2
DLD-1-wt and DLD-1 mutant cells are cultured in RPMI 1640+10% FBS+1% PS. The cells are harvested into culture media for 2-3 days. The cells are diluted into culture media (density 2˜3×10^6) and 40 μL of cell suspension (50 cells/well for DLD-1 wt and 50 cells/well for DLD-1 BRCA (-/-). The plates are covered and spun at rt at 1000 rpm, for 1 minute and then transferred. The plates are placed into 37° C. 5% CO2 incubator overnight. Test compounds are dissolved at 10 mM DMSO stock solution and then 40 μL of stock solution is transferred to a 384 PP-plate. A 10-point dilution is carried out by transferring 10 uL compound into 30 μL DMSO by using TECAN (EVO200) liquid handler. The plates are spun at rt at 1000 rpm for 1 minute and then shaken on a plate shaker for 2 minutes. Forty nL of diluted compound is transferred into the cell plate by using a liquid handler. After 7 days of incubation, a CTG detection assay is performed. The CTG detection assay is carried out by removing the plates from the incubators and then equilibrated at rt for 15 minutes. The CellTiter Glo reagents are thawed and equilibrated at rt. CellTiter-Glo reagent ([…]) is added into each well, and the plates are placed at rt for 30 minutes followed by reading on EnVision. The inhibition activity is calculated using the formula: % Inhibition=100×(LumHC−LumSample)/(LumHC−LumLC).
In Table 1, ‘A’ indicates an IC50 of <0.1 μM, ‘B’ indicates an IC50 of ≥0.1 μM and <1.0 μM, and ‘C’ indicates an IC50 of ≥[…]. As shown by the results in Table 1, compounds of Formula (I), including pharmaceutically acceptable salts thereof, are effective PARP1 inhibitors.
Target sequence in this assay (P09874 whole entry): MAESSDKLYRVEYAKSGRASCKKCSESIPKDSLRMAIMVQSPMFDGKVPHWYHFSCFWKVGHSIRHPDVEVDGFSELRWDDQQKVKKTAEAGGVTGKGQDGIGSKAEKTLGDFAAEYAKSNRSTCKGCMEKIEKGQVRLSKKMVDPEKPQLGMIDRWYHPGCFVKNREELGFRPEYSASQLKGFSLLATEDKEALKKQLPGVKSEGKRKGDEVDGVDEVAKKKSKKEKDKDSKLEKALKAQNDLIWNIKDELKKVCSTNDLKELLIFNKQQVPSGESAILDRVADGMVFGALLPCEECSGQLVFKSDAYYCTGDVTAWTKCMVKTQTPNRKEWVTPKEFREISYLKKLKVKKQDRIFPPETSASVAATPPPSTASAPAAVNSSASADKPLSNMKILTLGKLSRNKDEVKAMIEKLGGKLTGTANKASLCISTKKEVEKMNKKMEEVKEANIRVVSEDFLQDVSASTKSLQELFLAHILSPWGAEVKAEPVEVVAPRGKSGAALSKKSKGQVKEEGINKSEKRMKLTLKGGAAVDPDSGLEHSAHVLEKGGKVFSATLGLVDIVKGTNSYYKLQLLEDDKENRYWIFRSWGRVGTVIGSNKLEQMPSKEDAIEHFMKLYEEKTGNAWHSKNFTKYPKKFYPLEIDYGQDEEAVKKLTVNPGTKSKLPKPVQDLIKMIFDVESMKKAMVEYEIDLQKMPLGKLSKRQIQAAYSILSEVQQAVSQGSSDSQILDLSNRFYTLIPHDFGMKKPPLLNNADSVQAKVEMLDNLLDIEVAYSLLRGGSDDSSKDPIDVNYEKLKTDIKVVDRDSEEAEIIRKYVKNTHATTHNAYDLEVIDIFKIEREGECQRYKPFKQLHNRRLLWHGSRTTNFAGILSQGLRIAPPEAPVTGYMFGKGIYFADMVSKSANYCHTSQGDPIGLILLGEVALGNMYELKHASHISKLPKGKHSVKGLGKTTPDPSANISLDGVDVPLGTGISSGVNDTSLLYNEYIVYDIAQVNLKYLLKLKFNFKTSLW
In general, IC50 refers to the concentration that inhibits the measured activity by half. `CC[C@@H]1Oc2ccc(CN3CCN(c4ccc(C(=O)NC)nc4)CC3)cc2NC1=O` (single isomer, unassigned) [Compound 1ab] came in with an IC50 of less than 100 nM.
On the same count and under the same terms, in the case of `CC[C@@H]1Oc2ccc(CN3CCN(c4ccc(C(=O)NC)nc4C)CC3)cc2NC1=O` (single isomer, unassigned) [Compound 2ab] it was less than 100 nM; in that of `CC[C@H]1Oc2ccc(CN3CCN(c4ccc(C(=O)NC)nc4)CC3)cc2NC1=O` [Compound 1aa], less than 100 nM.
In turn, `CC[C@H]1Oc2ccc(CN3CCN(c4ccc(C(=O)NC)nc4C)CC3)cc2NC1=O` [Compound 2aa] yielded an IC50 of less than 100 nM.
As to `CCC1Oc2ccc(CN3CCN(c4ccc(C(=O)NC)nc4)CC3)cc2NC1=O` (centres unmarked) [Compound A1], the IC50 is less than 100 nM.
In turn, `CNC(=O)c1ccc(N2CCN(Cc3ccc4c(c3)NC(=O)C3(CC3)O4)CC2)c(F)n1` [Compound A7] gave an IC50 of less than 100 nM.
`CNC(=O)c1ccc(N2CCN(Cc3ccc4c(c3F)NC(=O)C3(CC3)O4)CC2)c(F)n1` [Compound A9] yielded an IC50 of less than 100 nM.

For a further assay, the target named is T1, PARP1. The assay can be described thus: biochemical assay (FP Binding Assay PARP1), Table 2. The protocol: FP Binding Assay (PARP1, PARP2)
The PARP1 and PARP 2 protein and the PARPi-FL were purchased from BPS Bioscience. The assay buffer was 50 mM Tris pH 8.0, 0.001% Triton X-100, 10 mM MgCl2, 150 mM NaCl. The compounds were diluted into top point concentration in 384PP-plate and transferred serially into an Optiplate-384F plate. Compound (20 nL) or DMSO was added to assay plate and then 10 μL of 40 nM PARP1 or PARP2 (diluted using assay buffer) was added. The assay plate was centrifuged at 1000 rpm for 1 min and then incubated for 30 min at rt. 6 nM PARPi-FL (diluted using assay buffer) (10 uL) was added to the plate (final concentration of PARP1 and PARP2 was 20 nM, and PARPi-FL was 3 nM). After centrifuging at 1000 rpm for 1 min, the assay plate was incubated at rt 4 h. The plates were read using Envision with Excitation filter. The data analysis was done by calculating the inhibition rate using mP value using the following equation. Inhibition (%)=(1−mpC−mpL)/mpH−mpL×100%.
As shown by the results in Table 2, compounds of Formula (I), including pharmaceutically acceptable salts thereof, are effective PARP1 inhibitors.
Target sequence in this assay (P09874 whole entry, species assumed): as the sequence (P09874 whole entry) above
In the case of `CNC(=O)c1ccc(N2CCN(Cc3ccc4c(c3)NC(=O)C3(CC3)O4)CC2)c(F)n1` [Compound A7], the IC50 is less than 5 nM.

(Values after patent US20250214980A1, “MULTICYCLIC COMPOUNDS” (SLAP Pharmaceuticals LLC, priority 2022, published 2025).)
